This assay deals with Recombinant human ATX (Homo sapiens (Human), UniProt Q13822). Nature of the assay: ATX inhibition assay (choline release, Amplex Red fluorescence). As to conditions: ATX 10 nM, LPC 18:1 10 μM, 37° C., 20 min pre-incubation; mean of n≧2. The class given is biochemical. The method, boiled down:
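Activity was taken from the slope of resorufin fluorescence (530/590 nm, read every 2 min for 40 min at 37 °C) produced by choline liberated from 10 μM oleoyl LPC.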
In the case of `Cc1nnn(Cc2cc(Cl)ccc2/C=C/C(=O)N2CCC(c3nnc(CN4CCOCC4)o3)CC2)n1` [Example 134, (E)-3-(4-Chloro-2-((5-methyl-2H-tetrazol-2-yl)methyl)phenyl)-1-(4-(5-(morpholinomethyl)-1,3,4-oxadiazol-2-yl)piperidin-1-yl)prop-2-en-1-one], the concentration for half-maximal inhibition (IC50) – broadly, the midpoint of a concentration-inhibition curve – was 12 nM.
Regarding `Cc1nnn(Cc2cc(Cl)ccc2/C=C/C(=O)N2CCN(Cc3cnc(N4CCOCC4)nc3)CC2)n1` [Example 140.8, (E)-3-(4-Chloro-2-((5-methyl-2H-tetrazol-2-yl)methyl)phenyl)-1-(4-((2-morpholinopyrimidin-5-yl)methyl)piperazin-1-yl)prop-2-en-1-one], the IC50 was 8.8 nM.
For the compound `Cc1nnn(Cc2ccc(Cl)cc2/C=C/C(=O)N2CCC(Cc3nnc(C)o3)CC2)n1` [Example 43, (E)-3-(5-Chloro-2-((5-methyl-2H-tetrazol-2-yl)methyl)phenyl)-1-(4-((5-methyl-1,3,4-oxadiazol-2-yl)methyl)piperidin-1-yl)prop-2-en-1-one], the IC50 amounted to 2370 nM.
For `COCC1CCCN(C(=O)/C=C/c2ccc(Cl)cc2Cn2nnc(C)n2)C1` (stereo not shown) [Example 49.17, (E)-3-(4-Chloro-2-((5-methyl-2H-tetrazol-2-yl)methyl)phenyl)-1-(3-(methoxymethyl)piperidin-1-yl)prop-2-en-1-one], the concentration for half-maximal inhibition (IC50) is 222 nM.
Regarding `Cc1nnn(Cc2cc(C(F)(F)F)ccc2/C=C/C(=O)N2CCN(CC(=O)OC(C)(C)C)C[C@H]2C)n1` [Example 65, (R,E)-tert-Butyl 2-(3-methyl-4-(3-(2-((5-methyl-2H-tetrazol-2-yl)methyl)-4-(trifluoromethyl)phenyl)acryloyl)piperazin-1-yl)acetate], the IC50 was determined as 5.5 nM.
In the case of `Cc1nnn(Cc2cc(Cl)ccc2/C=C/C(=O)N2CCN(c3ncccc3C(=O)N3CCCC3)CC2)n1` [Example 49.29, (E)-3-(4-Chloro-2-((5-methyl-2H-tetrazol-2-yl)methyl)phenyl)-1-(4-(3-(pyrrolidine-1-carbonyl)pyridin-2-yl)piperazin-1-yl)prop-2-en-1-one], the IC50 is 78 nM.
On to `Cc1nnn(Cc2cc(C(F)(F)F)ccc2/C=C/C(=O)N2CCCCC2C(F)(F)F)n1` (stereo not shown) [Example 124, (E)-3-(2-((5-Methyl-2H-tetrazol-2-yl)methyl)-4-(trifluoromethyl)phenyl)-1-(2-(trifluoromethyl)piperidin-1-yl)prop-2-en-1-one], for which the half-maximal inhibitory concentration (IC50) is 35 nM.
Take `Cc1nnn(Cc2cc(Cl)ccc2/C=C/C(=O)N2CCCC(c3nc(C(C)C)no3)C2)n1` (single isomer, unassigned) [Example 34b, (R or S, E)-3-(4-chloro-2-((5-methyl-2H-tetrazol-2-yl)methyl)phenyl)-1-(3-(3-isopropyl-1,2,4-oxadiazol-5-yl)piperidin-1-yl)prop-2-en-1-one]: the IC50 was found to be 149 nM.
With `Cc1nnn(Cc2cc(C(F)(F)F)ccc2/C=C/C(=O)N2CCC(Cc3nnc(C)o3)CC2)n1` [Example 81, (E)-1-(4-((5-Methyl-1,3,4-oxadiazol-2-yl)methyl)piperidin-1-yl)-3-(2-((5-methyl-2H-tetrazol-2-yl)methyl)-4-(trifluoromethyl)phenyl)prop-2-en-1-one], the 50% inhibitory concentration (IC50) worked out at 13 nM.
As for `Cc1nnn(Cc2cc(Cl)ccc2/C=C/C(=O)N2CCN(Cc3cc(-c4ccccc4)nn3C)CC2)n1` [Example 140.6, (E)-3-(4-Chloro-2-((5-methyl-2H-tetrazol-2-yl)methyl)phenyl)-1-(4-((1-methyl-3-phenyl-1H-pyrazol-5-yl)methyl)piperazin-1-yl)prop-2-en-1-one], the concentration for half-maximal inhibition (IC50) stood at 42 nM.
Regarding `COC[C@@H]1CCCN1C(=O)/C=C/c1ccc(C(F)(F)F)cc1Cn1nnc(C)n1` [Example 111, (S,E)-1-(2-(Methoxymethyl)pyrrolidin-1-yl)-3-(2-((5-methyl-2H-tetrazol-2-yl)methyl)-4-(trifluoromethyl)phenyl)prop-2-en-1-one], the IC50 is 47 nM.
On to `Cc1nnn(Cc2cc(Cl)ccc2/C=C/C(=O)N2CCC(O)(Cn3cc(C(=O)O)cn3)CC2)n1` [Example 35, (E)-1-((1-(3-(4-Chloro-2-((5-methyl-2H-tetrazol-2-yl)methyl)phenyl)acryloyl)-4-hydroxypiperidin-4-yl)methyl)-1H-pyrazole-4-carboxylic acid], for which the IC50 is 924 nM.
The value for `Cc1nnn(Cc2cc(C(F)(F)F)ccc2/C=C/C(=O)N2CCC(Cc3noc(C)n3)CC2)n1` [Example 71, (E)-1-(4-((5-Methyl-1,2,4-oxadiazol-3-yl)methyl)piperidin-1-yl)-3-(2-((5-methyl-2H-tetrazol-2-yl)methyl)-4-(trifluoromethyl)phenyl)prop-2-en-1-one] was 6 nM; that for `Cc1nnn(Cc2cc(Cl)ccc2/C=C/C(=O)N2CCN(Cc3cnn(C)c3)C[C@H]2C)n1` [Example 73, (R,E)-3-(4-Chloro-2-((5-methyl-2H-tetrazol-2-yl)methyl)phenyl)-1-(2-methyl-4-((1-methyl-1 H-pyrazol-4-yl)methyl)piperazin-1-yl)prop-2-en-1-one] was 4.2 nM.
Regarding `Cc1nnn(Cc2cc(Cl)ccc2/C=C/C(=O)N2CCC(c3nnc(CC(F)(F)F)o3)CC2)n1` [Example 141, (E)-3-(4-Chloro-2-((5-methyl-2H-tetrazol-2-yl)methyl)phenyl)-1-(4-(5-(2,2,2-trifluoroethyl)-1,3,4-oxadiazol-2-yl)piperidin-1-yl)prop-2-en-1-one], the IC50 stood at 11 nM.
In the case of `Cc1noc(Cc2cc(Cl)ccc2/C=C/C(=O)N2CCN(Cc3coc(C)n3)CC2)n1` [Example 76, (E)-3-(4-Chloro-2-((3-methyl-1,2,4-oxadiazol-5-yl)methyl)phenyl)-1-(4-((2-methyloxazol-4-yl)methyl)piperazin-1-yl)prop-2-en-1-one], the IC50 worked out at 73 nM.
The same measure for `Cc1nnn(Cc2cc(C(F)F)ccc2/C=C/C(=O)N2CCC(c3nnc(C)o3)CC2)n1` [Example 52, (E)-3-(4-(Difluoromethyl)-2-((5-methyl-2H-tetrazol-2-yl)methy)phenyl)-1-(4-(5-methyl-1,3,4-oxadiazol-2-yl)piperidin-1-yl)prop-2-en-1-one]: 17 nM.
Regarding `Cc1nnn(Cc2cc(Cl)ccc2/C=C/C(=O)N2CCC(Cc3ccccc3)CC2)n1` [Example 139, (E)-1-(4-Benzylpiperidin-1-yl)-3-(4-chloro-2-((5-methyl-2H-tetrazol-2-yl)methyl)phenyl)prop-2-en-1-one], the IC50 amounted to 67 nM.
Take `Cc1nnn(Cc2cc(C(F)(F)F)ccc2/C=C/C(=O)N2CCCCC2c2noc(C)n2)n1` (single isomer, unassigned) [Example 38a, (R or S, E)-1-(2-(5-Methyl-1,2,4-oxadiazol-3-yl)piperidin-1-yl)-3-(2-((5-methyl-2H-tetrazol-2-yl)methyl)-4-(trifluoromethyl)phenyl)prop-2-en-1-one]: the IC50 amounted to 20 nM.
As to `Cc1nnn(Cc2cc(C(F)(F)F)ccc2/C=C/C(=O)N2CCC(c3nnc(C4CCC4)o3)CC2)n1` [Example 103, (E)-1-(4-(5-Cyclobutyl-1,3,4-oxadiazol-2-yl)piperidin-1-yl)-3-(2-((5-methyl-2H-tetrazol-2-yl)methyl)-4-(trifluoromethyl)phenyl)prop-2-en-1-one], the IC50 came to 5.3 nM.
With `CCOC(=O)c1cnn(CC2(O)CCN(C(=O)/C=C/c3ccc(Cl)cc3Cn3nnc(C)n3)CC2)c1` [Example 32, (E)-Ethyl 1-((1-(3-(4-chloro-2-((5-methyl-2H-tetrazol-2-yl)methyl)phenyl)acryloyl)-4-hydroxypiperidin-4-yl)methyl)-1H-pyrazole-4-carboxylate], the 50% inhibitory concentration (IC50) was found to be 3.5 nM.
With `Cc1nnn(Cc2cc(C(F)(F)F)ccc2/C=C/C(=O)N2CCC(C(=O)O)CC2)n1` [Example 51, (E)-1-(3-(2-((5-Methyl-2H-tetrazol-2-yl)methyl)-4-(trifluoromethyl)phenyl)acryloyl)piperidine-4-carboxylic acid], the IC50 worked out at 77 nM.
Take `Cc1ccc(/C=C/C(=O)N2CCC(Cc3nnc(C)o3)CC2)c(Cn2nnc(C)n2)c1` [Example 72, (E)-1-(4-((5-Methyl-1,3,4-oxadiazol-2-yl)methyl)piperidin-1-yl)-3-(4-methyl-2-((5-methyl-2H-tetrazol-2-yl)methyl)phenyl)prop-2-en-1-one]: the IC50 came to 290 nM.
The same measure for `Cc1nnc(CC2CCN(C(=O)/C=C/c3ccc(Cl)cc3Cn3ncnn3)CC2)o1` [Example 77, (E)-3-(2-((2H-Tetrazol-2-yl)methyl)-4-chlorophenyl)-1-(4-((5-methyl-1,3,4-oxadiazol-2-yl)methyl)piperidin-1-yl)prop-2-en-1-one]: 1990 nM.
Regarding `Cc1nnn(Cc2cc(C(F)(F)F)ccc2/C=C/C(=O)N2CCCC[C@H]2c2nnc(C)o2)n1` [Example 1, (S,E)-1-(2-(5-Methyl-1,3,4-oxadiazol-2-yl)piperidin-1-yl)-3-(2-((5-methyl-2H-tetrazol-2-yl)methyl)-4-(trifluoromethyl)phenyl)prop-2-en-1-one], the IC50 is 8.8 nM.
The value for `Cc1nnn(Cc2cc(Cl)ccc2/C=C/C(=O)N2CCC(C(O)c3ccc(Cl)cc3)CC2)n1` (racemic) [Example 66, rac-(E)-3-(4-Chloro-2-((5-methyl-2H-tetrazol-2-yl)methyl)phenyl)-1-(4-((4-chlorophenyl)(hydroxy)methyl)piperidin-1-yl)prop-2-en-1-one] was 6 nM; that for `Cc1nnn(Cc2cc(Cl)ccc2/C=C/C(=O)N2CCC[C@H]2c2nnc(C)o2)n1` [Example 8, (S,E)-3-(4-Chloro-2-((5-methyl-2H-tetrazol-2-yl)methyl)phenyl)-1-(2-(5-methyl-1,3,4-oxadiazol-2-yl)pyrrolidin-1-yl)prop-2-en-1-one] was 378 nM.
Regarding `Cc1nnn(Cc2cc(Cl)ccc2/C=C/C(=O)N2CCC(c3nnc(CN4CCCCC4)o3)CC2)n1` [Example 122, (E)-3-(4-Chloro-2-((5-methyl-2H-tetrazol-2-yl)methyl)phenyl)-1-(4-(5-(piperidin-1-ylmethyl)-1,3,4-oxadiazol-2-yl)piperidin-1-yl)prop-2-en-1-one], the half-maximal inhibitory concentration (IC50) amounted to 58 nM.

Values taken from patent US9763957B2, “Autotaxin inhibitors” (Novartis AG, priority 2013, dated 2017).
